Laboratory results as given in the supplement of paper PMC12463676, “Small-molecule dissolution of stress granules by redox modulation benefits ALS models” (Nature Chemical Biology, 2025).

Legend:
potassium arsenate = compound: O=[As]([O-])(O)O.[K+] [potassium arsenate]; test: thermal stability z-score vs DMSO; higher = more thermally stabilized by treatment; settings: HeLa; arsenate concentration 1 mM
Procedure: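 Cellular thermal proteome profiling in HeLa cells treated with 1 mM arsenate for 1 h (DMSO pretreatment), heated to ten temperatures (37-66.3 °C). Soluble protein was quantified by TMT mass spectrometry relative to DMSO controls; the thermal stability score was transformed to a z-score; mean of n = 3 experiments.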

lipoamide = compound: NC(=O)CCCCC1CCSS1 [lipoamide]; test: as above; settings: HeLa, lipoamide concentration 100 µM
Procedure: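 Cellular thermal proteome profiling in HeLa cells. Cells were treated with 100 µM lipoamide for 1 h, with or without 1 mM arsenate for a further 1 h, then heated to ten temperatures (37-66.3 °C), and soluble protein was quantified by TMT mass spectrometry relative to 0.1% DMSO controls. The thermal stability score (sum of log2 fold changes minus the abundance score) was transformed to a z-score; mean of n = 3 experiments.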

[1] = arsenate co-treatment: 1 mM arsenate 1 h
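Further: each temperature applied for 3 min, abundance score taken as mean log2 fold change at the two lowest temperatures, z-score obtained by mean subtraction and division by SD.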

Chain of UniProt Q9NYR9 (Q9NYR9 whole entry): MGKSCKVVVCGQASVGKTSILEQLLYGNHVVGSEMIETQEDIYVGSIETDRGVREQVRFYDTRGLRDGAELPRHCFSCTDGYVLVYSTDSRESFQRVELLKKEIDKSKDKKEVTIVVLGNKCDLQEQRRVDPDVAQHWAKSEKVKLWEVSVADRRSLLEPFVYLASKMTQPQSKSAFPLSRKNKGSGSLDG
Chain of UniProt Q8TAT6 (Q8TAT6 whole entry): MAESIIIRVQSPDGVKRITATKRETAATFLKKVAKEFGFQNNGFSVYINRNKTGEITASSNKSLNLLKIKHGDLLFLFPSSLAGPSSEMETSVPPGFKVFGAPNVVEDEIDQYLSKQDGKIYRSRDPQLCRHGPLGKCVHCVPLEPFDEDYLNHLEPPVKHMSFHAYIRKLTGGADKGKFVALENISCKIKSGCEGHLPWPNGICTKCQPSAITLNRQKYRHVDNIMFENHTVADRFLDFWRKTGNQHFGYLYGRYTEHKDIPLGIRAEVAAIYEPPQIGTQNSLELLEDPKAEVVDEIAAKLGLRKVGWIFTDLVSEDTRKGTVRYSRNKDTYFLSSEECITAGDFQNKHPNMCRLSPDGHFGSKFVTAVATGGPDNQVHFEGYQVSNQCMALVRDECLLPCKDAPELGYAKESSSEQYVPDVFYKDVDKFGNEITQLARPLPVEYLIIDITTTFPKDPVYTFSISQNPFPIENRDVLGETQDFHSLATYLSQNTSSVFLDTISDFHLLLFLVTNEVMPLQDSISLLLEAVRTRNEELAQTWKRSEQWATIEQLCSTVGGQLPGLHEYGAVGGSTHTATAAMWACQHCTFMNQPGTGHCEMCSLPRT
Chain of UniProt Q86UT6 (Q86UT6 whole entry): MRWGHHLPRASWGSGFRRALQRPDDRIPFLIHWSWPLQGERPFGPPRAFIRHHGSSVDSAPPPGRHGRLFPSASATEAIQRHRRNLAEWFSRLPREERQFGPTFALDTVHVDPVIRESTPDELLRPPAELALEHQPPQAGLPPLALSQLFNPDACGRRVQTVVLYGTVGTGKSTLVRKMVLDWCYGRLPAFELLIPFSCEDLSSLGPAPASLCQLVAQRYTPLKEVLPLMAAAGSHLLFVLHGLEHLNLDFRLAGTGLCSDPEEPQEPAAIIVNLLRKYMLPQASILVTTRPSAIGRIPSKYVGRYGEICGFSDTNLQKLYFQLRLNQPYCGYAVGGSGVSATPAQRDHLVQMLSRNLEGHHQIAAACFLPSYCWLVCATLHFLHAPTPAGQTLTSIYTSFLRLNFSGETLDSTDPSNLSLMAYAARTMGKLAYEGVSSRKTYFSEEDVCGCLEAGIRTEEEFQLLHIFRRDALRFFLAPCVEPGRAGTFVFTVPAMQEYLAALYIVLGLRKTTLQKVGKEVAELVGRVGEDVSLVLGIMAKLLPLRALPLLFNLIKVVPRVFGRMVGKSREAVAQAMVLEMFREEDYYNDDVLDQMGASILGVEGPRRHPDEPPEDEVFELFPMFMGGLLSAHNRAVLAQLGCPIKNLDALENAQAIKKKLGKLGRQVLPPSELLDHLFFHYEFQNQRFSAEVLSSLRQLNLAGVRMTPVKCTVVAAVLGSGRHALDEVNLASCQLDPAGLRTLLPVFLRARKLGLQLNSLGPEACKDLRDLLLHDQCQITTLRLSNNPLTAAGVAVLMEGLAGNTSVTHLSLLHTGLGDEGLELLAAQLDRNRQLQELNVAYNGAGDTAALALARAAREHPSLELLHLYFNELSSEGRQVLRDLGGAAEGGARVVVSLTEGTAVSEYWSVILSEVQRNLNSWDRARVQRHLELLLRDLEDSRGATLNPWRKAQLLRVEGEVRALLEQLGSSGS
Chain of UniProt Q9NVX2 (Q9NVX2 whole entry): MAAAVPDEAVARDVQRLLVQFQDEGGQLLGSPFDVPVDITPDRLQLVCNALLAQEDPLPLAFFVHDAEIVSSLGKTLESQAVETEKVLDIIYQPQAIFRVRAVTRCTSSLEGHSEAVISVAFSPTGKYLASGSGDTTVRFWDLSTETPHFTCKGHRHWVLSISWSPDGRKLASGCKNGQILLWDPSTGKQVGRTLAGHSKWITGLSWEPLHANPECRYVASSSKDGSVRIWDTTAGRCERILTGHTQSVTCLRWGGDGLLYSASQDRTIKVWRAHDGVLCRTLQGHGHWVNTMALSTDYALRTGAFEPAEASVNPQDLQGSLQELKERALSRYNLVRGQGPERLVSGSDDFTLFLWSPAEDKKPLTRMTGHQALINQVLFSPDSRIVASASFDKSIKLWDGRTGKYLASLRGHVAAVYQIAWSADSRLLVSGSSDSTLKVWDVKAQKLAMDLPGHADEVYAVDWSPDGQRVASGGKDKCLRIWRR
Chain of UniProt P46087 (P46087 whole entry): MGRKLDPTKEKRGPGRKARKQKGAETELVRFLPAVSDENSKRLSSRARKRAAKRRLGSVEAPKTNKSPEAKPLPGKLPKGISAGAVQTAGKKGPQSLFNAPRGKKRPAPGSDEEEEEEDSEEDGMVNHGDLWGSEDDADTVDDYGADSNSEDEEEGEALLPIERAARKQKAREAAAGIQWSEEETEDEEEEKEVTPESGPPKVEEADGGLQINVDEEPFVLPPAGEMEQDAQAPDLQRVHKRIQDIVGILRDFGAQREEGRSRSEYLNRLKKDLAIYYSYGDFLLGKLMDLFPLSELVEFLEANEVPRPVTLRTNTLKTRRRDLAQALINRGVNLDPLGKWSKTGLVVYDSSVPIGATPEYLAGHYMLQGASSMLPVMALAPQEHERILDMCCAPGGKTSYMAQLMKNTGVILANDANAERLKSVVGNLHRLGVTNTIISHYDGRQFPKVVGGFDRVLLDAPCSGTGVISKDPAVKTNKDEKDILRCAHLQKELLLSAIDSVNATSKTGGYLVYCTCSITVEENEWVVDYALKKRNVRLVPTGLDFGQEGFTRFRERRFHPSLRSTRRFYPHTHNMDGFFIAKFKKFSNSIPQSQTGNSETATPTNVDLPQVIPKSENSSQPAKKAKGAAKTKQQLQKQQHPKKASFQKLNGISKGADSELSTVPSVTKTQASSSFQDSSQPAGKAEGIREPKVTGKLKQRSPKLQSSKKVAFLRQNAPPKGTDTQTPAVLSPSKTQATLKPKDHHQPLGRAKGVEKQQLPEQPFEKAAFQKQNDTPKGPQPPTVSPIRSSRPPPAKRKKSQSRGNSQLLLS
Chain of UniProt Q9ULX3 (Q9ULX3 whole entry): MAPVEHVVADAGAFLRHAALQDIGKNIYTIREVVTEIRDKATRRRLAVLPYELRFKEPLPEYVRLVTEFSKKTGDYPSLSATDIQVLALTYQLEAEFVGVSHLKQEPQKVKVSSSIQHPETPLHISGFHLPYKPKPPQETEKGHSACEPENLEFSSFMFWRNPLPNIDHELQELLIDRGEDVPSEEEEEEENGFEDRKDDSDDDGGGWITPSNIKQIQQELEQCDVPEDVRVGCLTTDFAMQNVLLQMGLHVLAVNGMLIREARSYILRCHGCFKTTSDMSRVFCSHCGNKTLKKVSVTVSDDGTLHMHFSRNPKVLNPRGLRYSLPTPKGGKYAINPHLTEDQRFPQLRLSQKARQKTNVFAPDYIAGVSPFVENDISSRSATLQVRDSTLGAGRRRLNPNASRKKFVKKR
Chain of UniProt O60936 (O60936 whole entry): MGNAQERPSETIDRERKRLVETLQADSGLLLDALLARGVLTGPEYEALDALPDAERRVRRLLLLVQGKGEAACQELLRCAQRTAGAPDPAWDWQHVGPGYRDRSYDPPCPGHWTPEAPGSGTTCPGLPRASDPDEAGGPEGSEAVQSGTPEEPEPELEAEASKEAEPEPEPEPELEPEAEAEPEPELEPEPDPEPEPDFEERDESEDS
Chain of UniProt Q9NPE3 (Q9NPE3 whole entry): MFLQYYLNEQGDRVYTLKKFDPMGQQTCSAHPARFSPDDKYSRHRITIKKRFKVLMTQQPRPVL
Chain of UniProt Q9HBL8 (Q9HBL8 whole entry): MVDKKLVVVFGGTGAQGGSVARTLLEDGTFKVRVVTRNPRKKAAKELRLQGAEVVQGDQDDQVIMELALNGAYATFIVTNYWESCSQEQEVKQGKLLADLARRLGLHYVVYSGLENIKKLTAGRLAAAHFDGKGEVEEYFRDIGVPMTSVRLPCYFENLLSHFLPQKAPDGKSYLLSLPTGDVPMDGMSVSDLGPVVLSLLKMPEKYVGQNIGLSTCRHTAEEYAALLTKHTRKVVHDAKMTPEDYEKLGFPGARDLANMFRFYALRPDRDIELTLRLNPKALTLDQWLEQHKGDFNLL
Chain of UniProt Q15233 (Q15233 whole entry): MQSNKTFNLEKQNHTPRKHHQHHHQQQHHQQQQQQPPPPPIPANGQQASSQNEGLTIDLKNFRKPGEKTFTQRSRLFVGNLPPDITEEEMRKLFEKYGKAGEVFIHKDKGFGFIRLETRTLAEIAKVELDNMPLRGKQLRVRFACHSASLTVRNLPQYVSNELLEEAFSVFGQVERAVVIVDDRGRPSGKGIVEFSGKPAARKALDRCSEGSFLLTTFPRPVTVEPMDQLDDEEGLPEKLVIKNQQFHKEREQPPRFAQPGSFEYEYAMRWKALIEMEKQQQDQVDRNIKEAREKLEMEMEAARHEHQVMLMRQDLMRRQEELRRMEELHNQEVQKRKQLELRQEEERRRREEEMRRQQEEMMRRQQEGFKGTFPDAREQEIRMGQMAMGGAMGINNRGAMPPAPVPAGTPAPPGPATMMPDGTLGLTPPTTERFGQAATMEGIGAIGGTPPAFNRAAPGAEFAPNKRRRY
Chain of UniProt Q9HAN9 (Q9HAN9 whole entry): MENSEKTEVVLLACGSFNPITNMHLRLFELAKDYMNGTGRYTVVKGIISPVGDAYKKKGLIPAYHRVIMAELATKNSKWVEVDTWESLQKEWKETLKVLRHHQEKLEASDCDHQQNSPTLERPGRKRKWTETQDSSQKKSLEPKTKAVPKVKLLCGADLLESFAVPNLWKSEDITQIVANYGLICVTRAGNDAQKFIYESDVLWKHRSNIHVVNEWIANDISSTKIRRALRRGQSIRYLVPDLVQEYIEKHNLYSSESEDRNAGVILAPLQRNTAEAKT

Target	thermal stability z-score (potassium arsenate)	thermal stability z-score (lipoamide; [1])	thermal stability z-score (lipoamide; arsenate co-treatment: none)
NIPSNAP1 (UniProt Q9BPW8)	-0.872	-1.48	-0.204
NIPSNAP3A (UniProt Q9UFN0)	0.337	0.144	0.432
NIT1 (UniProt Q86X76)	0.439	0.836	0.924
NIT2 (UniProt Q9NQR4)	0.0727	0.25	0.109
NKIRAS1 (UniProt Q9NYS0)	-0.0379	-0.202	-0.125
NKIRAS2 (UniProt Q9NYR9)	0.137	0.0549	-0.0133
NKRF (UniProt O15226)	-0.311	-0.0267	0.00359
NLE1 (UniProt Q9NVX2)	-2.71	0.481	0.2
NLN (UniProt Q9BYT8)	-0.079	-0.0488	0.000162
NLRX1 (UniProt Q86UT6)	-0.0617	0.128	0.211
NMD3 (UniProt Q96D46)	-0.0507	0.204	0.115
NME1|NME2	0.487	0.455	0.432
NME3 (UniProt Q13232)	0.673	0.0656	0.615
NME4 (UniProt O00746)	-1.86	-1.03	-1.25
NME6 (UniProt O75414)	0.083	0.102	0.493
NME7 (UniProt Q9Y5B8)	-0.13	0.000387	0.0484
NMI (UniProt Q13287)	2.1	1.24	0.324
NMNAT1 (UniProt Q9HAN9)	1.87	1.03	1.15
NMRAL1 (UniProt Q9HBL8)	1.37	1.43	1.45
NMT1 (UniProt P30419)	1.15	0.237	-0.0177
NNMT (UniProt P40261)	0.0978	1.79	1.62
NNT (UniProt Q13423)	0.0461	0.176	0.166
NO66 (UniProt Q9H6W3)	0.842	0.635	0.483
NOA1 (UniProt Q8NC60)	-0.0924	0.222	0.0658
NOB1 (UniProt Q9ULX3)	-0.873	-0.423	-0.679
NOC2L (UniProt Q9Y3T9)	0.0133	0.154	0.208
NOC4L (UniProt Q9BVI4)	0.214	0.134	0.00403
NOCT (UniProt Q9UK39)	0.112	-0.088	-0.117

Target	thermal stability z-score (potassium arsenate)	thermal stability z-score (lipoamide; [1])	thermal stability z-score (lipoamide; arsenate co-treatment: none)
NOL3 (UniProt O60936)	0.236	0.615	0.549
NOL6 (UniProt Q9H6R4)	-0.592	0.328	-0.0357
NOL7 (UniProt Q9UMY1)	-0.698	0.225	-0.325
NOL11 (UniProt Q9H8H0)	-0.0716	0.118	0.00868
NOL12|V9GYY5 (UniProt V9GYY5)	0.699	0.0645	-1.5
NOLC1 (UniProt Q14978)	-0.695	0.36	0.113
NOMO1 (UniProt Q15155)	0.353	-0.893	-1.83
NOMO2 (UniProt Q5JPE7)	0.407	-3.91	-3.99
NONO (UniProt Q15233)	-0.137	1.05	0.927
NOP2 (UniProt P46087)	-0.016	0.976	-0.163
NOP9 (UniProt Q86U38)	-0.372	0.182	0.121
NOP10 (UniProt Q9NPE3)	0.522	0.405	-0.0767
NOP14 (UniProt P78316)	-0.581	-0.68	-0.438
NOP16 (UniProt Q9Y3C1)	-1.68	-0.153	-0.677
NOP56 (UniProt O00567)	0.516	0.756	-0.0331
NOP58 (UniProt Q9Y2X3)	0.471	0.0369	-0.0387
NOS1AP (UniProt O75052)	-1.45	0.676	-0.0802
NOSIP (UniProt Q9Y314)	2.36	-1.04	-0.0974
NOTCH1 (UniProt P46531)	-0.0336	0.143	0.13
NOTCH2 (UniProt Q04721)	-0.309	-1.45	-1.57
NPC1 (UniProt O15118)	0.0121	-0.389	-0.182
NPC2 (UniProt P61916)	-0.391	0.0993	0.738
NPEPL1 (UniProt Q8NDH3)	1.2	-0.24	-0.808
NPEPPS (UniProt P55786)	0.725	0.502	0.202
NPLOC4 (UniProt Q8TAT6)	-0.0761	-0.0676	0.0243
NPM1 (UniProt P06748)	-1.07	1.35	0.674
NPM3 (UniProt O75607)	-0.95	0.175	0.102
